Measurements reported in PubChem BioAssay AID1963973 (Molecular Pharmacology Branch, DTP, NCI, 2024).

Test system: 883617-216-R-J1-PDC tumor spheroids, viability
Assay: Anticancer human tumor 883617-216-R-J1-PDC patient-derived bladder carcinoma cell line growth inhibition [PI3K]
Settings: spheroids with HUVEC and MSC; for IC50: curve of first compound; for viability, T/C: stronger effect = lower value
Outline: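 Three cell types, namely tumor cells, endothelial cells and mesenchymal stem cells, formed each spheroid. Combinations with four PI3K inhibitors were screened at clinically achievable concentrations decreasing by half-log, and spheroid viability was recorded.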

[1] = second compound 0.00316 µM, first compound 0.000316 µM
[2] = second compound 0.00316 µM, first compound 0.001 µM
[3] = second compound 0.00316 µM, first compound 0.00316 µM
[4] = second compound 0.00316 µM, first compound 0.01 µM
[5] = second compound 0.00316 µM, first compound 0.0316 µM
[6] = second compound 0.00316 µM, first compound 0.1 µM
[7] = second compound 0.01 µM, first compound 0.000316 µM
[8] = second compound 0.01 µM, first compound 0.001 µM
[9] = second compound 0.01 µM, first compound 0.00316 µM
[10] = second compound 0.01 µM, first compound 0.01 µM
[11] = second compound 0.01 µM, first compound 0.0316 µM
[12] = second compound 0.01 µM, first compound 0.1 µM
[13] = second compound 0.0316 µM, first compound 0.000316 µM
[14] = second compound 0.0316 µM, first compound 0.001 µM
[15] = second compound 0.0316 µM, first compound 0.00316 µM
[16] = second compound 0.0316 µM, first compound 0.01 µM
[17] = second compound 0.0316 µM, first compound 0.0316 µM
[18] = second compound 0.0316 µM, first compound 0.1 µM
[19] = second compound 0.1 µM, first compound 0.000316 µM
[20] = second compound 0.1 µM, first compound 0.001 µM
[21] = second compound 0.1 µM, first compound 0.00316 µM
[22] = second compound 0.1 µM, first compound 0.01 µM
[23] = second compound 0.1 µM, first compound 0.0316 µM
[24] = second compound 0.1 µM, first compound 0.1 µM
[25] = second compound 0.316 µM, first compound 0.000316 µM
[26] = second compound 0.316 µM, first compound 0.001 µM
[27] = second compound 0.316 µM, first compound 0.00316 µM
[28] = second compound 0.316 µM, first compound 0.01 µM
[29] = second compound 0.316 µM, first compound 0.0316 µM
[30] = second compound 0.316 µM, first compound 0.1 µM
[31] = second compound 1 µM, first compound 0.000316 µM
[32] = second compound 1 µM, first compound 0.001 µM
[33] = second compound 1 µM, first compound 0.00316 µM
[34] = second compound 1 µM, first compound 0.01 µM
[35] = second compound 1 µM, first compound 0.0316 µM
[36] = second compound 1 µM, first compound 0.1 µM
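Further: spheroids exposed to agents for 7 days before the viability read.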

## CC(C)n1nc(-c2ccc3oc(N)nc3c2)c2c(N)ncnc21 + CC(Nc1ccc2c(c1)OCCn1cc(N3C(=O)OCC3C(F)F)nc1-2)C(N)=O
Second compound 0.00316 µM
  IC50: 30 nM
Second compound 0.01 µM
  IC50: 24.6 nM
Second compound 0.0316 µM
  IC50: 7.16 nM
Second compound 0.1 µM
  IC50: 0.331 nM
Second compound 0.316 µM
  IC50: < 0.316 nM
Second compound 1 µM
  IC50: < 0.316 nM
[1]
  viability, T/C: 96.5%
[2]
  viability, T/C: 88.1%
[3]
  viability, T/C: 75.4%
[4]
  viability, T/C: 72.1%
[5]
  viability, T/C: 50.5%
[6]
  viability, T/C: 16.6%
[7]
  viability, T/C: 85.5%
[8]
  viability, T/C: 76.4%
[9]
  viability, T/C: 75%
[10]
  viability, T/C: 69.8%
[11]
  viability, T/C: 44.2%
[12]
  viability, T/C: 19.6%
[13]
  viability, T/C: 61.9%
[14]
  viability, T/C: 60.8%
[15]
  viability, T/C: 54.4%
[16]
  viability, T/C: 49%
[17]
  viability, T/C: 31.4%
[18]
  viability, T/C: 16.6%
[19]
  viability, T/C: 52.2%
[20]
  viability, T/C: 41.2%
[21]
  viability, T/C: 37.5%
[22]
  viability, T/C: 32%
[23]
  viability, T/C: 22.1%
[24]
  viability, T/C: 11.5%
[25]
  viability, T/C: 31.9%
[26]
  viability, T/C: 20.6%
[27]
  viability, T/C: 24.8%
[28]
  viability, T/C: 15.8%
[29]
  viability, T/C: 14.4%
[30]
  viability, T/C: 10.2%
[31]
  viability, T/C: 17.4%
[32]
  viability, T/C: 17.7%
[33]
  viability, T/C: 13.9%
[34]
  viability, T/C: 11.2%
[35]
  viability, T/C: 11.5%
[36]
  viability, T/C: 5.87%

## CC(C)n1nc(-c2ccc3oc(N)nc3c2)c2c(N)ncnc21 + CC(Nc1ncnc2nc[nH]c12)c1cc2cccc(Cl)c2c(=O)n1-c1ccccc1
Second compound 0.0316 µM
  IC50: 32.1 nM
Second compound 0.1 µM
  IC50: 34.2 nM
Second compound 0.316 µM
  IC50: 30 nM
Second compound 1 µM
  IC50: 21.3 nM
Second compound 3.16 µM
  IC50: 13.5 nM
Second compound 10 µM
  IC50: 0.321 nM
[13]
  viability, T/C: 91%
[14]
  viability, T/C: 75.2%
[15]
  viability, T/C: 76.8%
[16]
  viability, T/C: 82%
[17]
  viability, T/C: 50.4%
[18]
  viability, T/C: 18.4%
[19]
  viability, T/C: 95.3%
[20]
  viability, T/C: 93%
[21]
  viability, T/C: 87.6%
[22]
  viability, T/C: 69.7%
[23]
  viability, T/C: 54.5%
[24]
  viability, T/C: 17.4%
[25]
  viability, T/C: 87.4%
[26]
  viability, T/C: 92.5%
[27]
  viability, T/C: 81.7%
[28]
  viability, T/C: 72.8%
[29]
  viability, T/C: 49%
[30]
  viability, T/C: 19.9%
[31]
  viability, T/C: 91.2%
[32]
  viability, T/C: 77.1%
[33]
  viability, T/C: 80.2%
[34]
  viability, T/C: 68.3%
[35]
  viability, T/C: 40.2%
[36]
  viability, T/C: 19.6%
Second compound 3.16 µM, first compound 0.000316 µM
  viability, T/C: 83.6%
Second compound 3.16 µM, first compound 0.001 µM
  viability, T/C: 58.9%
Second compound 3.16 µM, first compound 0.00316 µM
  viability, T/C: 63.2%
Second compound 3.16 µM, first compound 0.01 µM
  viability, T/C: 60.6%
Second compound 3.16 µM, first compound 0.0316 µM
  viability, T/C: 38.1%
Second compound 3.16 µM, first compound 0.1 µM
  viability, T/C: 17.7%
Second compound 10 µM, first compound 0.000316 µM
  viability, T/C: 48.3%
Second compound 10 µM, first compound 0.001 µM
  viability, T/C: 50.7%
Second compound 10 µM, first compound 0.00316 µM
  viability, T/C: 45.8%
Second compound 10 µM, first compound 0.01 µM
  viability, T/C: 36.3%
Second compound 10 µM, first compound 0.0316 µM
  viability, T/C: 26.8%
Second compound 10 µM, first compound 0.1 µM
  viability, T/C: 13%

## C=CC(=O)N1CCN(c2nc(=O)n(-c3c(C)ccnc3C(C)C)c3nc(-c4c(O)cccc4F)c(F)cc23)C(C)C1 (configuration not stated)
Compound 0.0316 µM
  viability, T/C: 61.8% [middle of 4 runs]
Compound 0.1 µM
  viability, T/C: 48% [middle of 4 runs]
Compound 0.316 µM
  viability, T/C: 51.2% [middle of 4 runs]
Compound 1 µM
  viability, T/C: 58.9% [middle of 4 runs]
Compound 3.16 µM
  viability, T/C: 74.7% [middle of 4 runs]
Compound 10 µM
  viability, T/C: 66.4% [middle of 4 runs]

## CC(=O)c1c(C)c2cnc(Nc3ccc(N4CCNCC4)cn3)nc2n(C2CCCC2)c1=O + COc1c(OCCCN2CCOCC2)ccc2c3n(c(=NC(=O)c4cnc(N)nc4)nc12)CCN3
Second compound 0.00316 µM
  IC50: 41.2 nM
Second compound 0.01 µM
  IC50: 24.7 nM
Second compound 0.0316 µM
  IC50: < 0.316 nM
Second compound 0.1 µM
  IC50: < 0.316 nM
Second compound 0.316 µM
  IC50: < 0.316 nM
Second compound 1 µM
  IC50: < 0.316 nM
[1]
  viability, T/C: 63.1%
[2]
  viability, T/C: 75.6%
[3]
  viability, T/C: 92.5%
[4]
  viability, T/C: 72.2%
[5]
  viability, T/C: 53.3%
[6]
  viability, T/C: 39.7%
[7]
  viability, T/C: 71.5%
[8]
  viability, T/C: 70.5%
[9]
  viability, T/C: 61.2%
[10]
  viability, T/C: 71.6%
[11]
  viability, T/C: 44.9%
[12]
  viability, T/C: 26.4%
[13]
  viability, T/C: 40.5%
[14]
  viability, T/C: 37.6%
[15]
  viability, T/C: 30.2%
[16]
  viability, T/C: 27.5%
[17]
  viability, T/C: 27.1%
[18]
  viability, T/C: 21.6%
[19]
  viability, T/C: 16.1%
[20]
  viability, T/C: 12.2%
[21]
  viability, T/C: 11.1%
[22]
  viability, T/C: 13%
[23]
  viability, T/C: 11.2%
[24]
  viability, T/C: 11.8%
[25]
  viability, T/C: 4.61%
[26]
  viability, T/C: 5.01%
[27]
  viability, T/C: 4.74%
[28]
  viability, T/C: 3.95%
[29]
  viability, T/C: 4.31%
[30]
  viability, T/C: 3.85%
[31]
  viability, T/C: 3.24%
[32]
  viability, T/C: 2.85%
[33]
  viability, T/C: 2.99%
[34]
  viability, T/C: 3.68%
[35]
  viability, T/C: 2.94%
[36]
  viability, T/C: 2.98%
